According to patent publication US20120100361A1, “ANTISEPTIC COMPOSITION FOR ENGINEERING WOOD PRODUCTION, AND ENGINEERING WOOD” (SDS BIOTECH K.K., priority 2009, published 2012):

How the values were obtained:
[1] = tested on: Trametes versicolor; experiment: Test for antiseptic effects of preservative plywood (JIS K1571:2004); assay type: cell-based; conditions: plywood, urea melamine resin, Trametes versicolor
Method: (§1) 1000 g of urea melamine resin (PWP-60, manufactured by Oshika Corporation) was added to 180 g of wheat flour and fully kneaded to thereby obtain a kneaded product. 8 g of ammonium chloride was added as a hardening agent to the kneaded product, and a solution of each of the compounds of Example 1 and Comparative Example 1, 2 and 5 to 25 was further added thereto so that the final concentrations of the compound in the wood become 150, 100, 50 and 25 g/m^3 and kneaded. 18 g of the above kneaded product was applied onto each of the bonding plane of the three red lauan veneer sheets having an area of 30 x 30 cm and thickness of 0.85 mm/2.4 mm/0.85 mm. After bonding the three sheets to each other, the sheets were subjected to cold pressing at room temperature for 20 minutes and the thermal pressure of 120° C. (10 kgf/cm^2) was applied to the sheets for two minutes to obtain the target plywood. Each of the prepared plywood was processed into the size of 20×20×4.1 mm to serve as a test sample.
(§2) The samples of the plywood and LVL prepared in Preparation Examples 2 and 3 were evaluated by the test for antiseptic effects for the drug pressure treatment according to JIS K1571:2004. The weather resistance operation and the test method for the antiseptic effect were performed according to the above test method.

[2] = tested on: Fomitopsis palustris; experiment: as above; assay type: cell-based; conditions: plywood, urea melamine resin, Fomitopsis palustris
Method: as §1, §2

[3] = tested on: fungus cellar soil-bed; experiment: Fungus cellar soil-bed test of preservative plywood (JIS K1571:2004); conditions: plywood, six months, 25° C., grade 0 sound condition to 5 out of shape due to the decay
Method: as §1
The preservative plywood was prepared in the same manner in Preparation Example 2. Each of the prepared plywood was processed into the size of 8.9 x 8.9×100 mm to serve as a test sample.
(§3) The samples of the plywood and LVL prepared in Preparation Examples 4 and 5 were evaluated by the fungus cellar soil-bed test according to JIS K1571:2004. The weather resistance operation and the test method for the antiseptic effect were performed according to the above test method. The test was carried out for six months setting the test temperature to 25° C. (because the grade average of the decay damage of the non-treated test samples exceeded 2.5 in six months). […] The effect in the glue line treatment was actually investigated with respect to a number of existing antiseptics, and it was confirmed that only epoxyconazole is suitable for the glue line treatment at a low concentration.

[4] = tested on: Trametes versicolor; experiment: Test for antiseptic effects of preservative LVL (JIS K1571:2004); assay type: cell-based; conditions: phenol resin
Method: (§4) 1000 g of the phenol resin-based glue Deernol D-117 (manufactured by Oshika Corporation), 70 g of wheat flour and 100 g of calcium carbonate were mixed and well kneaded. A solution of each of the compounds of Example 1 and Comparative Example 1, 2 and 5 to 25 was added to the kneaded product so that the final concentrations of the compound in the wood become 150, 100, 50 and 25 g/m^3 and further kneaded. 18 g of the above kneaded product was applied onto each of the surface of glue line of the three Radiata pine veneer sheets having an area of 30 x 30 cm and thickness of 3 mm. After bonding the three sheets to each other, the sheets were subjected to cold pressing at room temperature for 20 minutes and the thermal pressure of 140° C. (10 kgf/cm^2) was applied to the sheets for two minutes to obtain the target LVL. Each of the prepared LVL was processed into the size of 20×20×9 mm to serve as a test sample.
as §2

[5] = tested on: Fomitopsis palustris; experiment: as above; assay type: cell-based; conditions: phenol resin
Method: as §4, §2

[6] = Test for miscibility with a phenol resin glue; assay type: physicochemical; set-up: key to Phenol resin status after 60 minutes: ∘: No change; x: Obvious increase in the viscosity was seen and it seems impossible to apply the composition onto the veneer sheet; conditions: 10% (w/w) solution added to phenol resin glue Deernol D-117 kneaded product; viscosity change visually observed for 60 minutes
Method: The following compounds, which are known to have wood preservative activity, are dissolved in methyl ethylene triglycol to reach a concentration of 10% (w/w) to thereby obtain a solution of each of the compounds.
1000 g of phenol resin-based glue Deernol D-117 (manufactured by Oshika Corporation), 70 g of wheat flour and 100 g of calcium carbonate were mixed and well kneaded. Each of the solutions of Example 1 and Comparative Example 1 to 25 was added to 17 g of the kneaded product and mixed well together. The viscosity change of the glue was visually observed for 60 minutes. […] Although a number of documents listed as the prior art documents and the like teach that quaternary ammonium compounds can be applied to the glue line treatment, it is clear that those compounds have a problem for practical use (Comparative Examples 3 and 4). On the other hand, it was confirmed that the other compounds including that of Example has no problem from the viewpoint of compatibility.

[7] = tested on: fungus cellar soil-bed; experiment: Fungus cellar soil-bed test of preservative LVL (JIS K1571:2004); conditions: 25° C., grade 0 sound condition to 5 out of shape due to the decay
Method: as §4
The preservative LVL was prepared in the same manner in Preparation Example 3. Each of the prepared LVL was processed into the size of 9×9×100 mm to serve as a test sample.
as §3

[8] = treated amount 25 g/m^3, six months
[9] = treated amount 50 g/m^3, six months
[10] = treated amount 100 g/m^3, six months
[11] = treated amount 150 g/m^3, six months

With CO/C=C(/C(=O)OC)c1ccccc1Oc1cc(Oc2ccccc2C#N)ncn1 [Comparative Example 21, azoxystrobin] the “average rate of decrease in weight” value ([1]; treated amount 25 g/m^3) was “X (The average rate of decrease in weight was 3% or more.)”, the “average rate of decrease in weight” value ([1]; treated amount 50 g/m^3) was “X (The average rate of decrease in weight was 3% or more.)” and the “average rate of decrease in weight” value ([1]; treated amount 100 g/m^3) was “X (The average rate of decrease in weight was 3% or more.)”. For the same compound, the “average rate of decrease in weight” value ([1]; treated amount 150 g/m^3) was “X (The average rate of decrease in weight was 3% or more.)”, the “average rate of decrease in weight” value ([2]; treated amount 25 g/m^3) was “X (The average rate of decrease in weight was 3% or more.)” and the “average rate of decrease in weight” value ([2]; treated amount 50 g/m^3) was “X (The average rate of decrease in weight was 3% or more.)”. The “average rate of decrease in weight” value ([2]; treated amount 100 g/m^3) was “X (The average rate of decrease in weight was 3% or more.)”, the “average rate of decrease in weight” value ([2]; treated amount 150 g/m^3) was “X (The average rate of decrease in weight was 3% or more.)” and the “Grade average of the decay damage of five test samples” value (“Grade average” for short) ([3]; treated amount 25 g/m^3) was 3.0. For the same compound, the “Grade average” value ([3]; treated amount 50 g/m^3) was 3.0, the “Grade average” value ([3]; treated amount 100 g/m^3) was 3.0 and the “Grade average” value ([3]; treated amount 150 g/m^3) was 2.8. For the same compound, the “average rate of decrease in weight” value ([4]; treated amount 25 g/m^3) was “X (The average rate of decrease in weight was 3% or more.)”, the “average rate of decrease in weight” value ([4]; treated amount 50 g/m^3) was “X (The average rate of decrease in weight was 3% or more.)” and the “average rate of decrease in weight” value ([4]; treated amount 100 g/m^3) was “X (The average rate of decrease in weight was 3% or more.)”. For the same compound, the “average rate of decrease in weight” value ([4]; treated amount 150 g/m^3) was “X (The average rate of decrease in weight was 3% or more.)”, the “average rate of decrease in weight” value ([5]; treated amount 25 g/m^3) was “X (The average rate of decrease in weight was 3% or more.)” and the “average rate of decrease in weight” value ([5]; treated amount 50 g/m^3) was “X (The average rate of decrease in weight was 3% or more.)”. For the same compound, the “average rate of decrease in weight” value ([5]; treated amount 100 g/m^3) was “X (The average rate of decrease in weight was 3% or more.)”, the “average rate of decrease in weight” value ([5]; treated amount 150 g/m^3) was “X (The average rate of decrease in weight was 3% or more.)” and the “Phenol resin status after 60 minutes” value [6] was “∘”. The “Grade average” value [7, 8] was 3.0, the “Grade average” value [7, 9] was 3.6 and the “Grade average” value [7, 10] was 3.4. For the same compound, the “Grade average” value [7, 11] was 2.8.
With CCCCCCCCn1sccc1=O [Comparative Example 24, N-octylisothiazolin-3-one] the “average rate of decrease in weight” value ([1]; treated amount 25 g/m^3) was “X (The average rate of decrease in weight was 3% or more.)”, the “average rate of decrease in weight” value ([1]; treated amount 50 g/m^3) was “X (The average rate of decrease in weight was 3% or more.)” and the “average rate of decrease in weight” value ([1]; treated amount 100 g/m^3) was “X (The average rate of decrease in weight was 3% or more.)”. For the same compound, the “average rate of decrease in weight” value ([1]; treated amount 150 g/m^3) was “X (The average rate of decrease in weight was 3% or more.)”, the “average rate of decrease in weight” value ([2]; treated amount 25 g/m^3) was “X (The average rate of decrease in weight was 3% or more.)” and the “average rate of decrease in weight” value ([2]; treated amount 50 g/m^3) was “X (The average rate of decrease in weight was 3% or more.)”. For the same compound, the “average rate of decrease in weight” value ([2]; treated amount 100 g/m^3) was “X (The average rate of decrease in weight was 3% or more.)”, the “average rate of decrease in weight” value ([2]; treated amount 150 g/m^3) was “X (The average rate of decrease in weight was 3% or more.)” and the “Grade average” value ([3]; treated amount 25 g/m^3) was 2.8. For the same compound, the “Grade average” value ([3]; treated amount 50 g/m^3) was 2.8, the “Grade average” value ([3]; treated amount 100 g/m^3) was 2.8 and the “Grade average” value ([3]; treated amount 150 g/m^3) was 2.8. For the same compound, the “average rate of decrease in weight” value ([4]; treated amount 25 g/m^3) was “X (The average rate of decrease in weight was 3% or more.)”, the “average rate of decrease in weight” value ([4]; treated amount 50 g/m^3) was “X (The average rate of decrease in weight was 3% or more.)” and the “average rate of decrease in weight” value ([4]; treated amount 100 g/m^3) was “X (The average rate of decrease in weight was 3% or more.)”. For the same compound, the “average rate of decrease in weight” value ([4]; treated amount 150 g/m^3) was “X (The average rate of decrease in weight was 3% or more.)”, the “average rate of decrease in weight” value ([5]; treated amount 25 g/m^3) was “X (The average rate of decrease in weight was 3% or more.)” and the “average rate of decrease in weight” value ([5]; treated amount 50 g/m^3) was “X (The average rate of decrease in weight was 3% or more.)”. The “average rate of decrease in weight” value ([5]; treated amount 100 g/m^3) was “X (The average rate of decrease in weight was 3% or more.)”, the “average rate of decrease in weight” value ([5]; treated amount 150 g/m^3) was “X (The average rate of decrease in weight was 3% or more.)” and the “Phenol resin status after 60 minutes” value [6] was “∘”. The “Grade average” value [7, 8] was 3.0, the “Grade average” value [7, 9] was 3.4 and the “Grade average” value [7, 10] was 3.0. The “Grade average” value [7, 11] was 3.2.
